{
  "source": "paper PMC4827351",
  "about": "(Chemical Science, 2015)",
  "key": {"[1]": {"system": "L. monocytogenes ATCC19115", "assay": "SEM analysis of bacterial agglutination", "assay_type": "cell-based, Listeria monocytogenes", "conditions": "3 µM proHD6 treated with trypsin before incubation (trypsin inactivated with APMSF), 30 min, 50 mM Tris-maleate pH 6.4", "method": "(§1) Fig. 3 TEM analysis of HD6 self-assembly and SEM analysis of bacterial agglutination. Top row: transmission electron micrographs of 10 mM sodium phosphate pH 7.4 (control), 0.4 μM trypsin (control), 20 μM proHD6 in the absence and presence of 0.4 μM trypsin, and 20 μM HD6. All the samples were incubated at room temperature for 1 h. Scale bar = 100 nm. TEM images obtained using 10 mM Tris-maleate pH 6.4 are presented in Fig. S7. ^† Middle row: scanning electron micrographs of E. coli ATCC 25922 treated with 50 mM Tris-maleate pH 6.4 (control), 0.4 μM APMSF-inactivated trypsin (control), 3 μM proHD6, 3 μM trypsin-cleaved proHD6, or 3 μM HD6. Trypsin-cleaved proHD6 was prepared prior to incubation with the bacteria and the residual enzymatic activity was inhibited by APMSF (Experimental section). Following a 30 min incubation, the bacterial suspensions were centrifuged, fixed, and analyzed by SEM. Scale bar = 20 μm. Bottom row: SEM of L. monocytogenes ATCC19115 treated under the same conditions as in the middle row. Scale bar = 20 μm.\nBacteria were grown aerobically at 37 °C overnight in LB media. The next morning the strains were subcultured and grown to mid-logarithmic phase in LB media. […]"}, "[2]": {"system": "L. monocytogenes ATCC 19115 invasion of human T84 colon epithelial cells", "assay": "Listeria invasion assay", "assay_type": "cell-based, Listeria monocytogenes", "conditions": "proHD6 ≤10 µM, no trypsin, bacteria pre-incubated with peptide 30 min at room temperature, n = 3", "method": "Fig. 5 Listeria invasion assays for native and cleaved proHD6. Invasion of human T84 colon epithelial cells by L. monocytogenes ATCC 19115 pre-treated with proHD6 in the absence and presence of 0.4 μM trypsin or HD6 (control). The bacteria (2 × 10^6 CFU mL^–1) were incubated with the indicated peptides for 30 min prior to the infection of the T84 cells (mean ± SDM, n = 3).\nConcentrated (20×, 10 μL) solutions of HD6 and proHD6 were prepared in sterile Milli-Q water (0, 50, 100, and 200 μM). For conditions that required trypsin, a 1 mg mL^–1 stock solution of TPCK-treated trypsin (Worthington) in sterile Milli-Q water was added to the 20× proHD6 solutions to yield a final trypsin concentration of 0.01 mg mL^–1. A 190 μL aliquot of the diluted bacterial culture was added to each […] peptide solution and the resulting mixtures were incubated at room temperature for 30 min. The invasion assays were then performed by following a literature protocol.[15],[50] All invasion assays were conducted with at least two independently prepared and purified samples of each peptide and in three independent trials and the resulting averages with standard deviations are reported."}, "[3]": {"assay": "Negative-staining TEM of peptide self-assembly", "assay_type": "physicochemical", "conditions": "for fibrils (TEM), time course of trypsin treatment: room temperature, 10 mM sodium phosphate pH 7.4", "method": "as §1\nThe samples for TEM were prepared by following a literature protocol.[15] For each sample, a 5 μL aliquot of peptide solution (20 μM in 10 mM sodium phosphate pH 7.4 or 10 mM Tris-maleate pH 6.4) was placed onto the carbon-coated surface of a copper grid (400 square mesh, Electron Microscopy Sciences). After 1 min, the grid was washed with a 5 μL aliquot of Milli-Q water, stained with a 5 μL aliquot of 2% uranyl acetate (UA, Electron Microscopy Sciences) in Milli-Q water three times, and air-dried for at least 15 min before imaging. A FEI Technai Spirit Transmission Electron Microscope was employed for all TEM imaging (W.M. Keck Microscopy Facility, Whitehead Institute, Cambridge, MA). TEM images were obtained with at least two independently prepared peptides and representative images are presented.\nFigure S7. TEM analysis of trypsin-catalyzed proteolysis of proHD6 in Tris-maleate buffer.\nTransmission electron micrographs of 10 mM Tris- maleate pH 6.4 (control), 0.4 µM trypsin (control), 20 µM proHD6 in the absence and presence of 0.4 µM trypsin, and 20 µM HD6. All samples were incubated at room temperature for 1 h. Scale bar = […].\nFigure S8. Time course of trypsin-catalyzed proteolysis of proHD6 monitored by TEM.\nTransmission electron micrographs of 20 µM proHD6 after treatment with 0.4 µM trypsin at room temperature for the indicated time. All the samples were in 10 mM sodium phosphate […]"}},
  "data": [
    {"sequence": "EPLQAEDDPLQAKAYEADAQEQRGANDQDFAVSFAEDASSSLRALGSTRAFTCHCRRSCYSTEYSYGTCTVMGINHRFCCL (disulfide (positions not given here)) [proHD6, 81-residue propeptide of human α-defensin 6, recombinant, from His6-SUMO-proHD6]", "values": [
      {"measurement": "bacterial agglutination (SEM), trypsin-cleaved", "setting": "[1]", "result": "same trypsin-dependent activity"},
      {"measurement": "L. monocytogenes invasion into human intestinal epithelial cells", "setting": "[2]", "result": "did not impair"},
      {"measurement": "formation of higher-order oligomers (TEM)", "setting": "[3]; 20 µM peptide, 10 mM sodium phosphate pH 7.4 or 10 mM Tris-maleate pH 6.4, room temperature 1 h, no trypsin", "result": "no evidence for the formation of higher-order oligomers"},
      {"measurement": "fibrils (TEM), time course of trypsin treatment", "setting": "[3]; 20 µM proHD6 + 0.4 µM trypsin, 5 min", "result": "relatively short fibrils"},
      {"measurement": "fibrils (TEM), time course of trypsin treatment", "setting": "[3]; 20 µM proHD6 + 0.4 µM trypsin, 60 min", "result": "closely resembled those of mature HD6"},
      {"measurement": "formation of fibrils (TEM) after addition of trypsin", "setting": "[3]; 20 µM proHD6 + 0.4 µM trypsin, room temperature 1 h, 10 mM sodium phosphate pH 7.4 or 10 mM Tris-maleate pH 6.4", "result": "fibril-like features comparable to those observed for the mature HD6 peptide"}
    ]}
  ]
}
